# Measurements: US7244557B2, “Method of screening modulators of Nod1 signaling” (Regents of the University of Michigan, priority 2003, dated 2007)
# How the values were obtained:
# [1] = test system: bone marrow-derived macrophages from wild-type mice; assay: Cytokine secretion assay (ELISA), bone marrow-derived macrophages from wild-type mice; type: cell-based, mouse; conditions: 12 hr; for secretion of IL-6 / secretion of TNF-α: 100 ng/ml
# Experimental: (§1) A), B), C) 3×10^5 bone marrow-derived macrophages from wild-type littermates (wt) and nod1-deficient mice were stimulated with 100 ng/ml of iE-DAP, MDP or dsRNA for 12 hr A), B). 0, 100 ng/ml Salmonella typhimurium LPS was used in the presence of 0, 1, 1000 ng/ml iE-DAP or 0, 0.1 1 μM immunostimulatory CpG as indicated for 12 hr C) The concentration of TNF-α (a) and IL-6 (b,c) were determined by ELISA using specific antibodies. Values represent the mean of normalized data±S.D. of triplicate cultures.
# Reagents. LPS from S. typhimurium, intact and alkaline-detoxified LPS from E. coli O55:B5 as well as purified lipid A preparations of E. coli F583, MDP, DAP and dsRNA were obtained from Sigma-Aldrich (St. Louis, Mo.). PGN from S. aureus was from Fluka-Chemie (Buchs, Germany). Palmitoyl-Cys ((RS)-2,3-di(palmitoyloxy)-propyl)-Ala-Gly) (sBLP), was obtained from Bachem (Torrance, Calif.). The tetrameric form of the disaccharide dipeptide was described previously (Inohara et al., J. Biol. Chem. 278:5509 [2003]). iE-DAP and iQ-DAP, M3P and M4P were synthesized as described (Kitaura et al., J. Med. Chem. 25:335 [1982]) with small modification. Purification of PGN from B. subtilis 168 and C. flaccumfaciens with hydrolases, Cellosyl or recombinant AtlE (amidase domain) and the fractionation and purification of reduced B. subtilis PGN digested with Cellosyl were performed as previously described (Heilman et al., Mol. Microbiol. 24:1013 [1997]; Atrih et al., J. Bact. 181:3956 [1999]). Removal of proteins and reduction of LPS fraction. E. coli O55:B5 LPS (Sigma) was treated with proteinase K at 37° C. for 12 hr to digest contaminating proteins. To eliminate lipoproteins, LPS was subjected to modified phenol extraction with deoxycholate-containing phenol as described (Hirschfeld et al., J. Immunol. 165:618 [2000]). For reduction of carboxyl group in the LPS, the LPS was treated with 1-ethyl-3-(3-dimethylaminopropyl) carbodiimide and then reduced with NaBH4 as described (Taylor et al., Biochemistry 11:1383 [1972]). Preparation of E. coli extract. E. coli K-12 mutants were all based on the SØ864 genetic background (lacZ trp upp relA rpsL) (Neuhard and Thomassen, J. Bacteriol. 126:999). SØ874 carries a large chromosomal deletion removing the gene clusters for the biosynthesis of CA capsule and O-antigen. CLM5 is a derivative of SØ874 with a transposon insertion in the wecC gene that blocks the synthesis of ECA (Marolda et al., J. Bacteriol. 177:5539[1995]). FAM5 is a derivative of SØ874 carrying a deletion that eliminates the incorporation of heptose in the LPS core. Extracts were prepared from all of these E. coli K-12 strains and also from another E. coli K-12 strain, LCD27 YA21-6 (Obtained from Dr. Arisaka, Tokyo Institute of Technology). Bacteria were cultured overnight at 37° C. in Luria broth, killed by treatment with acetone followed by vacuum drying and finally resuspended in 10 mM HEPES. The extract was treated with 1M NaOH at 55° C. for 12 hr and neutralized with 1M HEPES (pH 7.4). The soluble fraction after centrifugation and filtration with 0.22 μm filter was applied to SUPEROSE 12 gel filtration column chromatography. Partial purification of NOD1-stimulatory molecules from E. coli and composition analyses. The amino acid composition of E. coli O55:B5 LPS was determined using AccQ·Tag amino acid analysis system (Waters, Milford, Mass.) after hydrolysis at 110° C. for 24 hr. […]
# [2] = test system: bone marrow-derived macrophages from nod1-deficient mice; assay: Cytokine secretion assay (ELISA), bone marrow-derived macrophages from nod1-deficient mice; type: cell-based, mouse; conditions: 12 hr
# Experimental: as §1
# Reagents. LPS from S. typhimurium, intact and alkaline-detoxified LPS from E. coli O55:B5 as well as purified lipid A preparations of E. coli F583, MDP, DAP and dsRNA were obtained from Sigma-Aldrich (St. Louis, Mo.). PGN from S. aureus was from Fluka-Chemie (Buchs, Germany). Palmitoyl-Cys ((RS)-2,3-di(palmitoyloxy)-propyl)-Ala-Gly) (sBLP), was obtained from Bachem (Torrance, Calif.). The tetrameric form of the disaccharide dipeptide was described previously (Inohara et al., J. Biol. Chem. 278:5509 [2003]). iE-DAP and iQ-DAP, M3P and M4P were synthesized as described (Kitaura et al., J. Med. Chem. 25:335 [1982]) with small modification. Purification of PGN from B. subtilis 168 and C. flaccumfaciens with hydrolases, Cellosyl or recombinant AtlE (amidase domain) and the fractionation and purification of reduced B. subtilis PGN digested with Cellosyl were performed as previously described (Heilman et al., Mol. Microbiol. 24:1013 [1997]; Atrih et al., J. Bact. 181:3956 [1999]). Removal of proteins and reduction of LPS fraction. E. coli O55:B5 LPS (Sigma) was treated with proteinase K at 37° C. for 12 hr to digest contaminating proteins. To eliminate lipoproteins, LPS was subjected to modified phenol extraction with deoxycholate-containing phenol as described (Hirschfeld et al., J. Immunol. 165:618 [2000]). […] The amino acid composition of E. coli O55:B5 LPS was determined using AccQ·Tag amino acid analysis system (Waters, Milford, Mass.) after hydrolysis at 110° C. for 24 hr. […]
# [3] = macrophages lacking NOD1, 100 ng/ml
substance,measurement,setting,value
γ-D-glutamy-meso-diaminopimelic acid [iE-DAP],enhancement of the secretion of IL-6 induced by LPS,[1]; 100 ng/ml Salmonella typhimurium LPS,enhanced the secretion of IL-6 induced by LPS
same,secretion of IL-6,[1],induced the secretion
same,secretion of TNF-α,[1],induced the secretion
same,enhancement of the secretion of IL-6 induced by LPS,"[2]; nod1 −/− macrophages, 100 ng/ml Salmonella typhimurium LPS",this effect was impaired
MurNAc-L-Ala-γ-D-Gln [MDP],secretion of IL-6,[1],induced the secretion
same,secretion of TNF-α,[1],induced the secretion
same,secretion of IL-6,[2]; [3],responded
same,secretion of TNF-α,[2]; [3],responded
